Measurements: ChEMBL document CHEMBL3421620, “A facile synthesis of novel miconazole analogues and the evaluation of their antifungal activity” (2015)

Tests used:
Type in all cases: functional
Candida albicans [1] = test: Antifungal activity against Candida albicans Strain 17 by broth microdilution method
Candida albicans [2] = test: Antifungal activity against Candida albicans Strain 19 by broth microdilution method
[3] = Antifungal activity against Trichosporon cutaneum ATCC 28592 by broth microdilution method; conditions: Cutaneotrichosporon cutaneum
Candida albicans [4] = test: Antifungal activity against Candida albicans Strain 14 by broth microdilution method
Candida albicans [5] = test: Antifungal activity against Candida albicans Strain 13 by broth microdilution method
Candida albicans [6] = test: Antifungal activity against Candida albicans Strain 18 by broth microdilution method
Candida albicans [7] = test: Antifungal activity against Candida albicans Strain 1 by broth microdilution method
Candida albicans [8] = test: Antifungal activity against Candida albicans Strain 4 by broth microdilution method
Candida albicans [9] = test: Antifungal activity against Candida albicans Strain 9 by broth microdilution method
Nakaseomyces glabratus = test: Antifungal activity against Candida glabrata by broth microdilution method
Candida albicans [10] = test: Antifungal activity against Candida albicans Strain 7 by broth microdilution method
Candida albicans [11] = test: Antifungal activity against Candida albicans Strain 29 by broth microdilution method
Candida albicans [12] = test: Antifungal activity against Candida albicans Strain 20 by broth microdilution method
Candida albicans [13] = test: Antifungal activity against Candida albicans ATCC 10231 by broth microdilution method
Candida albicans [14] = test: Antifungal activity against Candida albicans Strain 27 by broth microdilution method
Candida albicans [15] = test: Antifungal activity against Candida albicans Strain 23 by broth microdilution method
Candida albicans [16] = test: Antifungal activity against Candida albicans Strain 5 by broth microdilution method
Candida albicans [17] = test: Antifungal activity against Candida albicans Strain 8 by broth microdilution method
Candida albicans [18] = test: Antifungal activity against Candida albicans Strain 10 by broth microdilution method
Candida albicans [19] = test: Antifungal activity against Candida albicans Strain 25 by broth microdilution method
Candida albicans [20] = test: Antifungal activity against Candida albicans Strain 3 by broth microdilution method
Cyberlindnera jadinii = test: Antifungal activity against Candida utilis ATCC 9226 by broth microdilution method; conditions: Williopsis jadinii
Candida albicans [21] = test: Antifungal activity against Candida albicans Strain 6 by broth microdilution method
Candida albicans [22] = test: Antifungal activity against Candida albicans Strain 26 by broth microdilution method
Candida albicans [23] = test: Antifungal activity against Candida albicans Strain 11 by broth microdilution method
Candida albicans [24] = test: Antifungal activity against Candida albicans Strain 24 by broth microdilution method
Candida albicans [25] = test: Antifungal activity against Candida albicans Strain 16 by broth microdilution method
Mucor hiemalis = test: Antifungal activity against Mucor hiemalis ATCC 8690 by broth microdilution method
Candida albicans [26] = test: Antifungal activity against Candida albicans Strain 12 by broth microdilution method
Rhizopus arrhizus = test: Antifungal activity against Rhizopus oryzae ATCC 10329 by broth microdilution method
Aspergillus fumigatus = test: Antifungal activity against Aspergillus fumigatus 16907 by broth microdilution method
Yarrowia lipolytica = test: Antifungal activity against Candida lipolytica by broth microdilution method
Candida albicans [27] = test: Antifungal activity against Candida albicans Strain 28 by broth microdilution method
Candida albicans [28] = test: Antifungal activity against Candida albicans Strain 21 by broth microdilution method
Candida parapsilosis = test: Antifungal activity against Candida parapsilosis by broth microdilution method; conditions: Lodderomyces parapsilosis
Candida albicans [29] = test: Antifungal activity against Candida albicans Strain 15 by broth microdilution method
Candida albicans [30] = test: Antifungal activity against Candida albicans Strain 2 by broth microdilution method
Kluyveromyces marxianus = test: Antifungal activity against Candida pseudotropicalis by broth microdilution method
Candida tropicalis = test: Antifungal activity against Candida tropicalis ATCC 13803 by broth microdilution method
Pichia kudriavzevii = test: Antifungal activity against Candida krusei by broth microdilution method
Candida albicans [31] = test: Antifungal activity against Candida albicans Strain 22 by broth microdilution method

Measured: MIC

CCC(C)n1ncn(-c2ccc(N3CCN(c4ccc(OCC5COC(Cn6cncn6)(c6ccc(Cl)cc6Cl)O5)cc4)CC3)cc2)c1=O (stereo not given) [ITRACONAZOLE]
0.06 µg/mL: Candida albicans [2] | Candida albicans [4] | Candida albicans [5] | Candida albicans [7] | Candida albicans [10] | Candida albicans [12] | Candida albicans [13] | Candida albicans [14] | Candida albicans [15] | Candida albicans [16] | Candida albicans [18] | Candida albicans [21] | Candida albicans [23] | Candida albicans [25] | Candida albicans [29] | Candida albicans [30] | Candida tropicalis
8 µg/mL: [3]
0.5 µg/mL: Cyberlindnera jadinii
0.03 µg/mL: Candida albicans [6] | Candida albicans [8] | Candida albicans [17] | Candida albicans [20] | Candida albicans [24] | Candida albicans [27] | Candida albicans [31]
0.25 µg/mL: Nakaseomyces glabratus | Candida parapsilosis | Kluyveromyces marxianus
1 µg/mL: Aspergillus fumigatus | Pichia kudriavzevii
> 16 µg/mL: Mucor hiemalis | Rhizopus arrhizus
0.12 µg/mL: Candida albicans [1] | Candida albicans [9] | Candida albicans [11] | Candida albicans [19] | Candida albicans [22] | Candida albicans [26] | Yarrowia lipolytica | Candida albicans [28]

COC(=O)c1ccc(COC(Cn2ccnc2)c2ccc(Cl)cc2Cl)cc1 (stereo not given)
4 µg/mL: Aspergillus fumigatus
0.06 µg/mL: Candida albicans [4] | Candida albicans [5] | Candida albicans [6] | Candida albicans [13] | Candida albicans [14] | Candida albicans [15] | Candida albicans [21] | Candida albicans [31]
0.5 µg/mL: Kluyveromyces marxianus
0.25 µg/mL: Candida albicans [9] | Nakaseomyces glabratus | Candida albicans [11] | Cyberlindnera jadinii
0.12 µg/mL: Candida albicans [1] | Candida albicans [2] | Candida albicans [7] | Candida albicans [8] | Candida albicans [10] | Candida albicans [12] | Candida albicans [16] | Candida albicans [17] | Candida albicans [18] | Candida albicans [19] | Candida albicans [20] | Candida albicans [22] | Candida albicans [23] | Candida albicans [24] | Candida albicans [25] | Candida albicans [26] | Yarrowia lipolytica | Candida albicans [27] | Candida albicans [28] | Candida parapsilosis | Candida albicans [29] | Candida albicans [30] | Candida tropicalis | Pichia kudriavzevii
> 16 µg/mL: Mucor hiemalis | Rhizopus arrhizus
8 µg/mL: [3]

COc1ccc(CCOC(Cn2ccnc2)c2ccc(Cl)cc2Cl)cc1OC (stereo not given)
2 µg/mL: Candida parapsilosis | Pichia kudriavzevii
4 µg/mL: Aspergillus fumigatus
16 µg/mL: [3]
0.12 µg/mL: Candida albicans [2] | Candida albicans [12] | Candida albicans [13] | Candida albicans [15] | Candida albicans [17] | Candida albicans [20] | Candida albicans [21] | Candida albicans [25] | Candida albicans [31]
0.5 µg/mL: Candida albicans [1] | Candida albicans [4] | Candida albicans [5] | Candida albicans [7] | Candida albicans [9] | Nakaseomyces glabratus | Candida albicans [10] | Candida albicans [11] | Candida albicans [16] | Candida albicans [18] | Candida albicans [19] | Candida albicans [22] | Candida albicans [23] | Candida albicans [24] | Candida albicans [26] | Yarrowia lipolytica | Candida albicans [28] | Candida albicans [29] | Candida albicans [30]
0.06 µg/mL: Candida albicans [6] | Candida albicans [8]
0.25 µg/mL: Candida albicans [14] | Candida albicans [27]
> 16 µg/mL: Mucor hiemalis | Rhizopus arrhizus
1 µg/mL: Cyberlindnera jadinii | Kluyveromyces marxianus | Candida tropicalis

O=C(O)C(OC(Cn1ccnc1)c1ccc(Cl)cc1Cl)c1ccccc1Cl (stereo not given)
0.25 µg/mL: Candida albicans [1] | Candida albicans [2] | Candida albicans [5] | Candida albicans [7] | Candida albicans [8] | Candida albicans [10] | Candida albicans [14] | Candida albicans [16] | Candida albicans [18] | Candida albicans [19] | Candida albicans [22] | Candida albicans [23] | Candida albicans [25] | Candida albicans [26] | Candida albicans [30]
0.5 µg/mL: Candida albicans [9] | Candida albicans [11] | Candida albicans [17] | Cyberlindnera jadinii | Candida albicans [27] | Candida albicans [28] | Candida albicans [29] | Candida tropicalis | Pichia kudriavzevii
0.12 µg/mL: Candida albicans [4] | Candida albicans [6] | Candida albicans [12] | Candida albicans [15] | Candida albicans [20] | Candida albicans [21] | Candida albicans [24] | Candida albicans [31]
0.06 µg/mL: Candida albicans [13]
8 µg/mL: Aspergillus fumigatus
1 µg/mL: Nakaseomyces glabratus | Yarrowia lipolytica | Candida parapsilosis | Kluyveromyces marxianus
> 16 µg/mL: [3] | Mucor hiemalis | Rhizopus arrhizus

OCc1ccc(COC(Cn2ccnc2)c2ccc(Cl)cc2Cl)cc1 (stereo not given)
16 µg/mL: [3]
0.06 µg/mL: Candida albicans [6] | Candida albicans [12]
0.5 µg/mL: Candida albicans [9] | Nakaseomyces glabratus | Candida albicans [11] | Cyberlindnera jadinii | Kluyveromyces marxianus | Candida tropicalis
> 16 µg/mL: Mucor hiemalis | Rhizopus arrhizus
0.25 µg/mL: Candida albicans [15] | Candida albicans [22] | Candida albicans [23] | Yarrowia lipolytica | Candida albicans [28] | Candida albicans [29]
4 µg/mL: Aspergillus fumigatus
1 µg/mL: Candida parapsilosis | Pichia kudriavzevii
0.12 µg/mL: Candida albicans [1] | Candida albicans [2] | Candida albicans [4] | Candida albicans [5] | Candida albicans [7] | Candida albicans [8] | Candida albicans [10] | Candida albicans [13] | Candida albicans [14] | Candida albicans [16] | Candida albicans [17] | Candida albicans [18] | Candida albicans [19] | Candida albicans [20] | Candida albicans [21] | Candida albicans [24] | Candida albicans [25] | Candida albicans [26] | Candida albicans [27] | Candida albicans [30] | Candida albicans [31]
